{
  "source": "BindingDB's records for doi:10.1016/j.bioorg.2016.12.009",
  "about": "(Universiti Teknologi Mara (Uitm), 2017)",
  "target": "Alpha-glucosidase MAL12 (Saccharomyces cerevisiae (strain ATCC 204508 / S288c), UniProt P53341)",
  "sequence (P53341 whole entry)": "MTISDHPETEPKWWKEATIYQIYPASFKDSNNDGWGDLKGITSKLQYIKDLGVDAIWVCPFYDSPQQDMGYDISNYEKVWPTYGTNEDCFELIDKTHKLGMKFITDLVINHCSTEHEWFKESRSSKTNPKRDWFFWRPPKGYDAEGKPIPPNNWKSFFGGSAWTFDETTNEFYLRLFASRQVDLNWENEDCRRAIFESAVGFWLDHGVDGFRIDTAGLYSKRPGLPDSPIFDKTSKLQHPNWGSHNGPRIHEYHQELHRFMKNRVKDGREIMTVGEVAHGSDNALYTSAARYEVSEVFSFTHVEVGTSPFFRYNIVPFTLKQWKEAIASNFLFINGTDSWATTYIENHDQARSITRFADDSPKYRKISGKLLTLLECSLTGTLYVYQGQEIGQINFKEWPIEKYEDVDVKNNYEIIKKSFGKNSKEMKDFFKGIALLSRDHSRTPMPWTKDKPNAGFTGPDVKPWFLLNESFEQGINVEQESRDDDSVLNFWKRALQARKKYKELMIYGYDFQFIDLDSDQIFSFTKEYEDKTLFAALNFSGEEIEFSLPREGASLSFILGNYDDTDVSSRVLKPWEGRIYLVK",
  "experiment": "Baker's Yeast α-Glucosidase Inhibition Assay",
  "conditions": "pH 6.8; 37 °C",
  "method": "The enzyme inhibition was evaluated according to the method previously reported by Zawawi et al. [Zawawi et al., Bioorg. Chem., 23:3119] with slight modification. Various concentration of test compounds (10 μL) were dissolved in DMSO (ranging from 200 to 6.25 μg/mL) and premixed with 95 μL of 50 mM phosphate buffer (pH 6.8). Then, 25 μL of enzyme (0.0625 U/mL) in phosphate buffer saline was added into each well and the plate was incubated at 37 °C for 10 min. Afterward, 25 μl of PNPG in phosphate buffer saline (5 mM) were added and pre-read of the plate was taken by using a microplate reader (Spectrostar Nano BMG Labtech, Germany). The reaction mixture was then incubated at 37 °C for 30 min and change in absorbance at 405 nm was monitored up to 30 min. For negative control, the test samples were replaced with 10 μL of DMSO and acarbose was used as positive control. All experiments were triplicated and the results were expressed as the mean ± S.E.M of three determinations.",
  "data": [
    {"compound": "Cc1cc2nc(-c3ccc(C(=O)NNC(=S)Nc4ccccc4Br)cc3)[nH]c2cc1C", "note": "[N-(2-bromophenyl)-2-(4-(5,6-dimethyl-1H-benzo[d]imidazol-2-yl)benzoyl)hydrazinecarbothioamide (1)]", "values": [
      {"measurement": "IC50", "result": 129, "unit": "µM"}
    ]},
    {"compound": "Cc1cccc(NC(=S)NNC(=O)c2ccc(-c3nc4cc(C)c(C)cc4[nH]3)cc2)c1", "note": "[2-(4-(5,6-Dimethyl-1H-benzo[d]imidazol-2-yl)benzoyl)-N-(m-tolyl)hydrazinecarbothioamide (16)]", "values": [
      {"measurement": "IC50", "result": 219, "unit": "µM"}
    ]},
    {"compound": "Cc1cc2nc(-c3ccc(C(=O)NNC(=S)Nc4ccc([N+](=O)[O-])cc4)cc3)[nH]c2cc1C", "note": "[2-(4-(5,6-Dimethyl-1H-benzo[d]imidazol-2-yl)benzoyl)-N-(4-nitrophenyl)hydrazinecarbothioamide (14)]", "values": [
      {"measurement": "IC50", "result": 35.8, "unit": "µM"}
    ]},
    {"compound": "COc1cccc(NC(=S)NNC(=O)c2ccc(-c3nc4cc(C)c(C)cc4[nH]3)cc2)c1", "note": "[2-(4-(5,6-Dimethyl-1H-benzo[d]imidazol-2-yl)benzoyl)-N-(3-methoxyphenyl)hydrazinecarbothioamide (8)]", "values": [
      {"measurement": "IC50", "result": 71.8, "unit": "µM"}
    ]},
    {"compound": "Cc1cc2nc(-c3ccc(C(=O)NNC(=S)Nc4ccc(Br)cc4)cc3)[nH]c2cc1C", "note": "[N-(4-bromophenyl)-2-(4-(5,6-dimethyl-1H-benzo[d]imidazol-2-yl)benzoyl)hydrazinecarbothioamide (10)]", "values": [
      {"measurement": "IC50", "result": 50.6, "unit": "µM"}
    ]},
    {"compound": "COc1ccc(NC(=S)NNC(=O)c2ccc(-c3nc4cc(C)c(C)cc4[nH]3)cc2)cc1", "note": "[2-(4-(5,6-Dimethyl-1H-benzo[d]imidazol-2-yl)benzoyl)-N-(4-methoxyphenyl)hydrazinecarbothioamide (13)]", "values": [
      {"measurement": "IC50", "result": 305, "unit": "µM"}
    ]},
    {"compound": "Cc1cc2nc(-c3ccc(C(=O)NNC(=S)Nc4ccc(C(F)(F)F)cc4)cc3)[nH]c2cc1C", "note": "[2-(4-(5,6-Dimethyl-1H-benzo[d]imidazol-2-yl)benzoyl)-N-(4(trifluoromethyl)phenyl)hydrazinecarbothioamide (15)]", "values": [
      {"measurement": "IC50", "result": 163, "unit": "µM"}
    ]},
    {"compound": "Cc1cc2nc(-c3ccc(C(=O)NNC(=S)Nc4ccc(Cl)c(Cl)c4)cc3)[nH]c2cc1C", "note": "[N-(3,4-dichlorophenyl)-2-(4-(5,6-dimethyl-1H-benzo[d]imidazol-2-yl)benzoyl)hydrazinecarbothioamide (5)]", "values": [
      {"measurement": "IC50", "result": 61.9, "unit": "µM"}
    ]},
    {"compound": "Cc1cc2nc(-c3ccc(C(=O)NNC(=S)Nc4cccc([N+](=O)[O-])c4)cc3)[nH]c2cc1C", "note": "[2-(4-(5,6-Dimethyl-1H-benzo[d]imidazol-2-yl)benzoyl)-N-(3-nitrophenyl)hydrazinecarbothioamide (9)]", "values": [
      {"measurement": "IC50", "result": 117, "unit": "µM"}
    ]},
    {"compound": "Cc1cc2nc(-c3ccc(C(=O)NNC(=S)Nc4ccccc4F)cc3)[nH]c2cc1C", "note": "[2-(4-(5,6-dimethyl-1H-benzo[d]imidazol-2-yl)benzoyl)-N-(2-fluorophenyl)hydrazinecarbothioamide (3)]", "values": [
      {"measurement": "IC50", "result": 231, "unit": "µM"}
    ]},
    {"compound": "Cc1ccc(NC(=S)NNC(=O)c2ccc(-c3nc4cc(C)c(C)cc4[nH]3)cc2)cc1", "note": "[2-(4-(5,6-Dimethyl-1H-benzo[d]imidazol-2-yl)benzoyl)-N-(p-tolyl)hydrazinecarbothioamide (17)]", "values": [
      {"measurement": "IC50", "result": 298, "unit": "µM"}
    ]},
    {"compound": "Cc1cc2nc(-c3ccc(C(=O)NNC(=S)Nc4ccc(F)cc4)cc3)[nH]c2cc1C", "note": "[2-(4-(5,6-Dimethyl-1H-benzo[d]imidazol-2-yl)benzoyl)-N-(4-fluorophenyl)hydrazinecarbothioamide (12)]", "values": [
      {"measurement": "IC50", "result": 277, "unit": "µM"}
    ]},
    {"compound": "Cc1cc2nc(-c3ccc(C(=O)NNC(=S)Nc4cccc(Br)c4)cc3)[nH]c2cc1C", "note": "[N-(3-bromophenyl)-2-(4-(5,6-dimethyl-1H-benzo[d]imidazol-2-yl)benzoyl)hydrazinecarbothioamide (6)]", "values": [
      {"measurement": "IC50", "result": 178, "unit": "µM"}
    ]},
    {"compound": "Cc1cc2nc(-c3ccc(C(=O)NNC(=S)Nc4ccccc4Cl)cc3)[nH]c2cc1C", "note": "[N-(2-chlorophenyl)-2-(4-(5,6-dimethyl-1H-benzo[d]imidazol-2-yl)benzoyl)hydrazinecarbothioamide (2)]", "values": [
      {"measurement": "IC50", "result": 284, "unit": "µM"}
    ]},
    {"compound": "COc1ccccc1NC(=S)NNC(=O)c1ccc(-c2nc3cc(C)c(C)cc3[nH]2)cc1", "note": "[2-(4-(5,6-Dimethyl-1H-benzo[d]imidazol-2-yl)benzoyl)-N-(2-methoxyphenyl)hydrazinecarbothioamide (4)]", "values": [
      {"measurement": "IC50", "result": 346, "unit": "µM"}
    ]},
    {"compound": "Cc1cc2nc(-c3ccc(C(=O)NNC(=S)Nc4ccc(Cl)cc4)cc3)[nH]c2cc1C", "note": "[N-(4-chlorophenyl)-2-(4-(5,6-dimethyl-1H-benzo[d]imidazol-2-yl)benzoyl)hydrazinecarbothioamide (11)]", "values": [
      {"measurement": "IC50", "result": 187, "unit": "µM"}
    ]},
    {"compound": "Cc1cc2nc(-c3ccc(C(=O)NNC(=S)Nc4cccc(F)c4)cc3)[nH]c2cc1C", "note": "[2-(4-(5,6-Dimethyl-1H-benzo[d]imidazol-2-yl)benzoyl)-N-(3-fluorophenyl)hydrazinecarbothioamide (7)]", "values": [
      {"measurement": "IC50", "result": 247, "unit": "µM"}
    ]}
  ]
}
